Data taken from US10899790B2, “Method for modifying T cell population” (OSAKA UNIVERSITY, priority 2016, dated 2021).

What was measured:
[1] = tested on: Healthy human-derived CD4+CD45RO+T cells; assay: Effect in vitro: CD62L and CD127 expression in cultured T cells by flow cytometry; assay type: cell-based; conditions: 20 μM; anti-CD3, anti-CD28, IL-2; vs DMSO control (FIG. 2)
Experimental: Healthy human-derived CD4^+CD45RO^+T cells (1×10^5) were cultured in the presence of anti-CD3 antibody (2 μg/ml), anti-CD28 antibody (2 μg/ml), IL-2 (20 IU/ml) and RDH10 inhibitors (Compound No. 16 (RDHI-032), Compound No. 17 (RDHI-033), and Compound No. 18 (RDHI-034)) (20 μM for each). In addition, DMSO was used as a control for the RDH10 inhibitor. After seven days […] resuspended in a fresh culture medium to which IL-2 was not added, and cultured for one more day. Thereafter, the expression of CD62L and CD127 in T cells was analyzed by flow cytometry. The culture solution used was X-VIVO15 to which AB serum was added to have a final concentration of 10%.

[2] = biological target: T1, Retinol Dehydrogenase 10 (RDH10) (Homo sapiens, UniProt Q8IZV5); assay: Inhibition of RDH10 enzyme activity (microsomal fraction of RDH10-expressed 293T, all-trans retinol to all-trans retinal, HPLC); assay type: biochemical; conditions: final concentration of 20 μM; relative to DMSO control (FIG. 1)
T1 construct: expressed in transfected cells; host or cells: 293T (microsomal fraction)
T1 sequence (Q8IZV5 1-341): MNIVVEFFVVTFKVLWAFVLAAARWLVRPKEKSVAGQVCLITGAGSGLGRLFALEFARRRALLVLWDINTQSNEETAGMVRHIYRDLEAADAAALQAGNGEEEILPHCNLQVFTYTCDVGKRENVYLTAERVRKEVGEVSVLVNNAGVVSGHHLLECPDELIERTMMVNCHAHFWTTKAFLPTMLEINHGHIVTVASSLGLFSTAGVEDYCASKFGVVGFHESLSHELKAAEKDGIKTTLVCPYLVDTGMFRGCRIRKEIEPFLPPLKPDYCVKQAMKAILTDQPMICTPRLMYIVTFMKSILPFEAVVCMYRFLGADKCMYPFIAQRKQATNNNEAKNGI
Experimental: All-trans retinol, BSA, and NAD (nicotinamide adenine dinucleotide) as a coenzyme were added to a buffer for reaction (90 mM potassium phosphate buffer, pH7.4, 40 mM KCl) so as to have final concentrations of 10 μM, 10 μM, and 1 mM respectively. This mixture was taken in siliconized tubes by 200 μl for each, the microsomal fractions separated from 293T and RDH10-expressed 293T were added to separate tubes by 10 μl for each, and the mixtures were allowed to react at 37° C. for 15 minutes. After 200 μl of methanol was added to the reaction mixtures to stop the reaction, retinoid was extracted using hexane and concentrated. The concentrated retinoid was dissolved in 150 μl of acetonitrile, separated by HPLC, and subjected to the detection of ultraviolet light absorption at a wavelength of 350 nm, whereby the substrate (all-trans retinol) and the product (all-trans retinal) were detected. In addition, standard samples (all-trans retinol and all-trans retinal) were separated by HPLC and the retention times of the respective standard samples were determined in advance. The solvent for HPLC was acetonitrile: 50 mM ammonium acetate=75:25. As the separation column, Syhergi 4 μm Hydro-RP 80A (manufactured by Phenomenex) was used. In addition, the flow rate was 2.0 ml/min. The RDH10 enzyme activity was calculated by reading the amount of product per fixed time from the chart of HPLC.
All-trans retinol, BSA, and NAD (nicotinamide adenine dinucleotide) as a coenzyme were added to a buffer for reaction (90 mM potassium phosphate buffer, pH7.4, 40 mM KCl) so as to have final concentrations of 10 μM, 10 μM, and 1 mM respectively. This mixture was taken in siliconized tubes by 200 μl for each, the microsomal fraction separated from RDH10-expressed 293T was added to separate tubes by 10 μl for each. The RDH10 inhibitor dissolved in DMSO was added to each tube so as to have a final concentration of 20 μM, and the same amount of DMSO was added to the control tube. The mixture was allowed to react at 37° C. for 15 to 30 minutes, 200 μl of methanol was added to the reaction mixtures, and then retinoid was extracted using hexane and concentrated. The concentrated retinoid was dissolved in 150 μl of acetonitrile, separated by HPLC, and subjected to the detection of ultraviolet light absorption at a wavelength of 350 nm, whereby the substrate (all-trans retinol) and the product (all-trans retinal) were detected. In addition, standard samples (all-trans retinol and all-trans retinal) were separated by HPLC and the retention times of the respective standard samples were determined in advance. The solvent for HPLC was acetonitrile: 50 mM ammonium acetate=75:25. As the separation column, Syhergi 4 μm Hydro-RP 80A (manufactured by Phenomenex) was used. The flow rate was 2.0 ml/min.
The enzyme activity was determined by the waveform area of the product (all-trans retinal) with respective to the waveform area of the non-reacted substrate (all-trans retinol), and the relative value with respect to the enzyme activity in the control is illustrated in FIG. 1. The error bars indicate SD (standard deviation).

SMILES	amplification of memory T cells (CD62L+CD127+T cells) [1]	RDH10 enzyme activity inhibitory action [2]
COC(=O)[C@@]1(C)CC[C@]2(C)CC[C@]3(C)C(=CC(=O)[C@@H]4[C@@]5(C)CCC(NC(=O)c6ccccc6C(=O)O)C(C)(C)[C@@H]5CC[C@]43C)[C@H]2C1 (stereo partly drawn) [Compound No. 3, 2-((4aR,6aR,6bS,8aS,11S,12aS,14aR,14bS)-11-(methoxycarbonyl)-4,4,6a,6b,8a,11,14b-heptamethyl-14-oxo-1,2,3,4,4a,5,6,6a,6b,7,8,8a,9,10,11,12,12a,14,14a,14b-icosahydropicen-3-ylcarbamoyl)benzoic acid]	tended to amplify memory cells	–
COC(=O)[C@@]1(C)CC[C@]2(C)CC[C@]3(C)C(=CC(=O)[C@@H]4[C@@]5(C)CCC(NC(=O)/C=C\C(=O)O)C(C)(C)[C@@H]5CC[C@]43C)[C@@H]2C1 (stereo partly drawn) [Compound No. 6, (Z)-4-((4aR,6aR,6bS,8aS,11S,12aR,14aR,14bS)-11-(methoxycarbonyl)-4,4,6a,6b,8a,11,14b-heptamethyl-14-oxo-1,2,3,4,4a,5,6,6a,6b,7,8,8a,9,10,11,12,12a,14,14a,14b-icosahydropicen-3-ylamino)-4-oxobut-2-enoic acid]	tended to amplify memory cells	–
COC(=O)c1ccccc1NC(=O)NC1CC[C@]2(C)[C@H]3C(=O)C=C4[C@H]5C[C@@](C)(C(=O)OC)CC[C@]5(C)CC[C@@]4(C)[C@]3(C)CC[C@H]2C1(C)C (stereo partly drawn) [Compound No. 9, (2S,4aS,6aS,6bR,8aR,12aS,12bR,14bS)-methyl 10-(3-(2-(methoxycarbonyl)phenyl)ureido)-2,4a,6a,6b,9,9,12a-heptamethyl-13-oxo-1,2,3,4,4a,5,6,6a,6b,7,8,8a,9,10,11,12,12a,12b,13,14b-icosahydropicene-2-carboxylate]	–	relatively potent
CCOC(=O)CNC(=O)NC1CC[C@]2(C)[C@H]3C(=O)C=C4[C@H]5C[C@@](C)(C(=O)OC)CC[C@]5(C)CC[C@@]4(C)[C@]3(C)CC[C@H]2C1(C)C (stereo partly drawn) [Compound No. 10, (2S,4aS,6aS,6bR,8aR,12aS,12bR,14bS)-methyl 10-(3-(2-ethoxy-2-oxoethyl)ureido)-2,4a,6a,6b,9,9,12a-heptamethyl-13-oxo-1,2,3,4,4a,5,6,6a,6b,7,8,8a,9,10,11,12,12a,12b,13,14b-icosahydropicene-2-carboxylate]	–	relatively potent
COC(=O)[C@H](Cc1ccccc1)NC(=O)NC1CC[C@]2(C)[C@H]3C(=O)C=C4[C@H]5C[C@@](C)(C(=O)OC)CC[C@]5(C)CC[C@@]4(C)[C@]3(C)CC[C@H]2C1(C)C (stereo partly drawn) [Compound No. 11, (2S,4aS,6aS,6bR,8aR,12aS,12bR,14bS)-methyl 10-(3-((S)-1-methoxy-1-oxo-3-phenylpropan-2-yl)ureido)-2,4a,6a,6b,9,9,12a-heptamethyl-13-oxo-1,2,3,4,4a,5,6,6a,6b,7,8,8a,9,10,11,12,12a,12b,13,14b-icosahydropicene-2-carboxylate]	tended to amplify memory cells	–
COC(=O)[C@@]1(C)CC[C@]2(C)CC[C@]3(C)C(=CC(=O)[C@@H]4[C@@]5(C)CCC(NC(=O)Nc6ccccc6C(=O)O)C(C)(C)[C@@H]5CC[C@]43C)[C@H]2C1 (stereo partly drawn) [Compound No. 12, 2-(3-((4aR,6aR,6bS,8aS,11S,12aS,14aR,14bS)-11-(methoxycarbonyl)-4,4,6a,6b,8a,11,14b-heptamethyl-14-oxo-1,2,3,4,4a,5,6,6a,6b,7,8,8a,9,10,11,12,12a,14,14a,14b-icosahydropicen-3-yl)ureido)benzoic acid]	tended to amplify memory cells	–
CC1(C)C(N)CC[C@]2(C)[C@H]3C(=O)C=C4[C@H]5C[C@@](C)(C(N)=O)CC[C@]5(C)CC[C@@]4(C)[C@]3(C)CC[C@@H]12 (stereo partly drawn) [Compound No. 19, (2S,4aS,6aS,6bR,8aR,12aS,12bR,14bS)-10-amino-2,4a,6a,6b,9,9,12a-heptamethyl-13-oxo-1,2,3,4,4a,5,6,6a,6b,7,8,8a,9,10,11,12,12a,12b,13,14b-icosahydropicene-2-carboxamide]	tended to amplify memory cells	–
CC1(C)C(N)CC[C@]2(C)[C@H]3C(=O)C=C4[C@H]5C[C@@](C)(C(=O)O)CC[C@]5(C)CC[C@@]4(C)[C@]3(C)CC[C@@H]12.Cl (stereo partly drawn) [Compound No. 20, (2S,4aS,6aS,6bR,8aR,12aS,12bR,14bS)-10-amino-2,4a,6a,6b,9,9,12a-heptamethyl-13-oxo-1,2,3,4,4a,5,6,6a,6b,7,8,8a,9,10,11,12,12a,12b,13,14b-icosahydropicene-2-carboxylic acid hydrochloride]	tended to amplify memory cells	–
CC1(C)C(N)CC[C@]2(C)[C@H]3C(=O)C=C4[C@@H]5C[C@@](C)(C(=O)O)CC[C@]5(C)CC[C@@]4(C)[C@]3(C)CC[C@@H]12.Cl (stereo partly drawn) [Compound No. 21, (2S,4aS,6aS,6bR,8aR,12aS,12bR,14bR)-10-amino-2,4a,6a,6b,9,9,12a-heptamethyl-13-oxo-1,2,3,4,4a,5,6,6a,6b,7,8,8a,9,10,11,12,12a,12b,13,14b-icosahydropicene-2-carboxylic acid hydrochloride]	tended to amplify memory cells	–
CC1(C)C(NC(=O)c2ccccc2C(=O)O)CC[C@]2(C)[C@H]3C(=O)C=C4[C@@H]5C[C@@](C)(C(=O)O)CC[C@]5(C)CC[C@@]4(C)[C@]3(C)CC[C@@H]12 (stereo partly drawn) [Compound No. 27, (2S,4aS,6aS,6bR,8aR,12aS,12bR,14bR)-10-(2-carboxybenzamide)-2,4a,6a,6b,9,9,12a-heptamethyl-13-oxo-1,2,3,4,4a,5,6,6a,6b,7,8,8a,9,10,11,12,12a,12b,13,14b-icosahydropicene-2-carboxylic acid]	tended to amplify memory cells	–
CC1(C)C(=NO)CC[C@]2(C)[C@H]3C(=O)C=C4[C@H]5C[C@@](C)(C(N)=O)CC[C@]5(C)CC[C@@]4(C)[C@]3(C)CC[C@@H]12 [RDHI-038, (2S,4aS,6aS,6bR,8aR,12aS,12bR,14bS)-10-(hydroxyimino)-2,4a,6a,6b,9,9,12a-heptamethyl-13-oxo-1,2,3,4,4a,5,6,6a,6b,7,8,8a,9,10,11,12,12a,12b,13,14b-icosahydropicene-2-carboxamide]	tended to amplify memory cells	–
